Molecules are shown by their SMILES.

The target in this assay is T1, dihydroorotate dehydrogenase (DHODH) (Homo sapiens, UniProt Q02127).
T1 construct: N-terminal His-tagged DHODH/ΔTM; Met29–Arg395
The assay can be described thus: DCIP reduction enzyme assay with recombinant human DHODH. It counts as biochemical.

T1 sequence (Q02127 29-395): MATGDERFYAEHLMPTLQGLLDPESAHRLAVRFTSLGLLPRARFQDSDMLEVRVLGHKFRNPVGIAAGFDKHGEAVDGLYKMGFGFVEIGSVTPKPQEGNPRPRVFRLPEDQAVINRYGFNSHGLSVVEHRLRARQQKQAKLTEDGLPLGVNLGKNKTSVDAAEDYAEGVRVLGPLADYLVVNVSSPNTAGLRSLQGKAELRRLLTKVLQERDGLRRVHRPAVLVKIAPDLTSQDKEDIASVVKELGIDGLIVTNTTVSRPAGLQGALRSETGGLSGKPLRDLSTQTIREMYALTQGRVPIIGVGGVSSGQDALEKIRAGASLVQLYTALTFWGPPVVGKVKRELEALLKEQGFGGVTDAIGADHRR

For `Cc1cc(=O)oc2c1ccc1oc(C(O)c3ccccc3)c(-c3ccccc3)c12` (centres unmarked) [H-006, 8-(Hydroxyphenylmethyl)-4-methyl-9-phenyl-2H-furo[2,3-h]-1-benzopyran-2-one], the IC50 (in general, the concentration that gives 50% inhibition) was 3.8 nM.

For `Cc1cc(=O)oc2c1ccc1oc(C(=O)c3ccccc3)c(-c3ccccc3)c12` [NPD723, 8-Benzoyl-4-methyl-9-phenyl-2H-furo[2,3-h]-1-benzopyran-2-one], the IC50 was determined as 1520 nM.

Values taken from paper PMC10513951, “Identification of a dihydroorotate dehydrogenase inhibitor that inhibits cancer cell growth by proteomic profiling” (Oncology Research, 2023).
